Read-outs that look alike come from different tables or passages of the source.
What was measured:
human 5-HT1D receptor [1] = target: T1, human 5-HT1D receptor (Homo sapiens, UniProt P28221); assay: cAMP accumulation (LANCE Ultra TR-FRET) in HEK293T cells, WT 5-HT1D; assay type: cell-based; conditions: for EC50: cAMP accumulation, HEKt cells, mean ± SD; for Emax: HEK-293T
T1 construct: host or cells: HEK293T
Protocol: (§1) Briefly, cells transfected with the desired receptor construct and compounds were incubated in the dark for 90 min at 37 °C. After incubation, cAMP detection reagents were added, and TR-FRET was used to quantify the cAMP produced.
(§2) The functional activity of compounds was determined by stimulating cells expressing the desired receptor with FSK and test compound in parallel with 12 known concentrations of cAMP. The known concentrations of cAMP were used to create a standard curve for each experiment that was used to interpolate the unknown values of cAMP in wells with test compounds. […] The EC50 and EMAX values were determined using the “dose response – log[agonist] vs response (three parameter)” nonlinear regression model in Prism and transformed to pEC50 values, reported as mean ± SD.
(§3) Summary of functional assay conditions at various 5-HT1 receptor point mutation constructs.

human 5-HT1F receptor = target: T2, human 5-HT1F receptor (Homo sapiens, UniProt P30939); assay: Radioligand binding (saturation and competition), WT 5-HT1F
T2 construct: host or cells: HEK293T
T2 sequence (P30939 1-366): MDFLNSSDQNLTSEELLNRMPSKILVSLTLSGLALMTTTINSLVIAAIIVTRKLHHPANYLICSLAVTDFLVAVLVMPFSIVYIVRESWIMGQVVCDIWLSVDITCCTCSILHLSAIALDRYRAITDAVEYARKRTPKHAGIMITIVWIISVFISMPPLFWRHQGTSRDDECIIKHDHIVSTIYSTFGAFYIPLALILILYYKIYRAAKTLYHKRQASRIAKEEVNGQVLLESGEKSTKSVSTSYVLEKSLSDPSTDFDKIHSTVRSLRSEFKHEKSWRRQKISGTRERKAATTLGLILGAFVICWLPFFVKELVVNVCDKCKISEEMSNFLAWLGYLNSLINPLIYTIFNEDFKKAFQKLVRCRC

human 5-HT1D receptor [2] = target: T1, human 5-HT1D receptor; assay: Radioligand binding (saturation and competition), WT 5-HT1D
human 5-HT1B receptor [3] = target: T3, human 5-HT1B receptor (Homo sapiens, UniProt P28222); assay: Radioligand binding (saturation and competition), WT 5-HT1B
T3 construct: host or cells: HEK293T

human 5-HT1B receptor [4] = target: T3, human 5-HT1B receptor; assay: cAMP accumulation (LANCE Ultra TR-FRET) in HEK293T cells, WT 5-HT1B; assay type: cell-based; conditions: for EC50: cAMP accumulation, HEKt cells, mean ± SD; for Emax: HEK-293T
Protocol: as §1, §2, §3

human 5-HT1A receptor [5] = target: T4, human 5-HT1A receptor (Homo sapiens, UniProt P08908); assay: Radioligand binding (saturation and competition), WT 5-HT1A
T4 construct: host or cells: HEK293T
T4 sequence (P08908 1-422): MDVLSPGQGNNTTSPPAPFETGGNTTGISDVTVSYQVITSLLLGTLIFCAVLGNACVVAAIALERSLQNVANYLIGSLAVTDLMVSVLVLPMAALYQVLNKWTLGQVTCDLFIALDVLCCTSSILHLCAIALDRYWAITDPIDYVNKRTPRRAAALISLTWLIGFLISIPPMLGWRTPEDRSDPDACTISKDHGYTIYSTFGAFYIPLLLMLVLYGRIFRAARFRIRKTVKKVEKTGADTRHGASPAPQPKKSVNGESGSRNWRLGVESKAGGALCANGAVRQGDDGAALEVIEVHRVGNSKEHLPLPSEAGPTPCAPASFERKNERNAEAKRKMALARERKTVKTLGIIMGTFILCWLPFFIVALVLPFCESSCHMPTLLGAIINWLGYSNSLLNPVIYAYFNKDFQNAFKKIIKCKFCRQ

human 5-HT1A receptor [6] = target: T4, human 5-HT1A receptor; assay: cAMP accumulation (LANCE Ultra TR-FRET) in HEK293T cells, WT 5-HT1A; assay type: cell-based; conditions: for EC50: cAMP accumulation, HEKt cells, mean ± SD; for Emax: HEK-293T
Protocol: as §1, §2, §3

[7] = read-out: 5-HT1D EMAX (%), WT receptor, normalized to basal (0%) and 10 μM 5-CT (100%)
[8] = WT receptor, normalized to basal (0%) and 10 μM 5-CT (100%)
[9] = Affinity (pKi ± SD) 5-HT1D, WT receptor, [^3H]5-CT competition, mean ± SD
[10] = Affinity (pKi ± SD) 5-HT1B, WT receptor, [^3H]5-CT competition, mean ± SD
[11] = read-out: 5-HT1B EMAX (%), WT receptor, normalized to basal (0%) and 10 μM 5-CT (100%)
[12] = read-out: 5-HT1A EMAX (%), WT receptor, normalized to basal (0%) and 10 μM 5-CT (100%)
[13] = Affinity (pKi ± SD) 5-HT1A, WT receptor, [^3H]5-CT competition, mean ± SD
[14] = WT receptor, [^3H]5-HT competition, mean ± SD, read-out: Affinity (pKi ± SD) 5-HT1F (converted)
[15] = WT receptor, read-out: 5-HT1D pEC50 (converted)
[16] = read-out: Affinity (pKi ± SD) 5-HT1D (converted)
[17] = read-out: Affinity (pKi ± SD) 5-HT1B (converted)
[18] = WT receptor, read-out: 5-HT1B pEC50 (converted)
[19] = read-out: Affinity (pKi ± SD) 5-HT1A (converted)
[20] = WT receptor, read-out: 5-HT1A pEC50 (converted)

T1 sequence (P28221 whole entry): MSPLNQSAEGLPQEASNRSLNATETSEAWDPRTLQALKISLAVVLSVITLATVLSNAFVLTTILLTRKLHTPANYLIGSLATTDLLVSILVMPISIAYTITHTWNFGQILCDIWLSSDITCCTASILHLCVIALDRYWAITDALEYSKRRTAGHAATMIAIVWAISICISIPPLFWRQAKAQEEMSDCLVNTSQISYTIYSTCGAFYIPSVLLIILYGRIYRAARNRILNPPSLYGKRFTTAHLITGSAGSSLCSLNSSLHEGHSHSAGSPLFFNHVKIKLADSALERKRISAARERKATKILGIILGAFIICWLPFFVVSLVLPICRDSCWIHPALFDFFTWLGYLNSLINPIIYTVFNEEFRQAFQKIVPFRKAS
T3 sequence (P28222 whole entry): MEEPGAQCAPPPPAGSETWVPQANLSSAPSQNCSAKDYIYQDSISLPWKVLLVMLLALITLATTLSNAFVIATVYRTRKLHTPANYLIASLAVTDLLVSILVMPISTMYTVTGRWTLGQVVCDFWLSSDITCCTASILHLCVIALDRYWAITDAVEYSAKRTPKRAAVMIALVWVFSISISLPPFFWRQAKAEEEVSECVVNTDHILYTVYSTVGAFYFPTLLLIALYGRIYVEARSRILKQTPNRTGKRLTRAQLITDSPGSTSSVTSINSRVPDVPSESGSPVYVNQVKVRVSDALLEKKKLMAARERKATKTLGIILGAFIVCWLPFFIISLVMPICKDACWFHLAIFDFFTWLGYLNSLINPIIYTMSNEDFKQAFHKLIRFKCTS

Ki (human 5-HT1D receptor [2]; [16])	Emax (human 5-HT1A receptor [6]; read-out: 5-HT1A EMAX (%))	Compound	EC50 (human 5-HT1D receptor [1]; 5-HT1D pEC50, WT receptor)	Emax (human 5-HT1D receptor [1]; [7])	Ki (human 5-HT1F receptor)	Ki (human 5-HT1D receptor [2]; [9])	Ki (human 5-HT1B receptor [3]; [10])	EC50 (human 5-HT1B receptor [4]; 5-HT1B pEC50, WT receptor)	Emax (human 5-HT1B receptor [4]; [11])	5-HT1B EMAX (%) (human 5-HT1B receptor [4]; [8])	EC50 (human 5-HT1A receptor [6]; 5-HT1A pEC50, WT receptor)	Emax (human 5-HT1A receptor [6]; [12])	Ki (human 5-HT1A receptor [5]; [13])	other results
–	–	CN(C)[C@H]1CCc2c(cccc2-c2ccccc2)C1 [(S)-5-PAT]	0.741 nM	> 90%	6760 nM	0.661 nM	10.2 nM	14.5 nM	~30%	28 ± 3%	70.8 nM	> 90%	–	5-HT1D EMAX (%) (human 5-HT1D receptor [1]; [8]): 97 ± 2%; more potent at the 5-HT1D receptor compared to 5-HT1A and 5-HT1B receptors (human 5-HT1D receptor [1]; cAMP potency ratio): over 10 fold; Affinity (pKi ± SD) 5-HT1A (human 5-HT1A receptor [5]; WT receptor, [^3H]5-CT competition, mean ± SD): 8.20 ± 0.04; 5-HT1A EMAX (%) (human 5-HT1A receptor [6]; [8]): 100 ± 2%
–	–	CCCN(CCC)[C@H]1CCc2cccc(O)c2C1 [(S)-8-OH-DPAT, 8-hydroxy-N,N-dipropyl-1,2,3,4-tetrahydronaphthalen-2-amine, reference compound]	–	94 ± 2%	> 10000 nM	–	–	–	85 ± 3%	–	–	–	–	5-HT1A EMAX (%) (human 5-HT1A receptor [6]; [8]): 70 ± 3%
–	–	CN(C)[C@H]1CCc2c(cccc2-c2ccccc2Cl)C1 [(S)-CPT]	2.24 nM	101 ± 1%	> 10000 nM	0.447 nM	0.891 nM	0.347 nM	> 90%	100 ± 1%	43.7 nM	91 ± 2%	5.75 nM	–
–	–	CCCN(CCC)[C@H]1CCc2c(cccc2-c2ccccc2Cl)C1 [(S)-DCPT]	2.4 nM	101 ± 2%	7590 nM	0.562 nM	0.398 nM	0.288 nM	> 90%	103 ± 2%	26.3 nM	92 ± 4%	1.41 nM	–
–	–	CCCN(CCC)[C@H]1CCc2c(cccc2-c2ccccc2F)C1 [(S)-DFPT]	1.17 nM	99 ± 2%	8510 nM	0.155 nM	2 nM	1.23 nM	> 90%	100 ± 2%	12.6 nM	100 ± 2%	1.45 nM	–
–	–	O=C1CCc2ccc(OCCCCN3CCN(c4cccc(Cl)c4Cl)CC3)cc2N1 [Aripiprazole, aripiprazole, reference compound]	–	96 ± 1%	–	–	–	–	99 ± 3%	–	–	96 ± 2%	–	Ki (human 5-HT1F receptor; [14]): 7240 nM
617 nM	75 ± 1%	O=C1CC2(CCCC2)CC(=O)N1CCCCN1CCN(c2ncccn2)CC1 [Buspirone, buspirone, reference compound]	–	–	–	–	–	–	–	–	–	–	–	Emax (human 5-HT1D receptor [1]; read-out: 5-HT1D EMAX (%)): 50 ± 3%; EC50 (human 5-HT1D receptor [1]; [15]): > 10000 nM; Ki (human 5-HT1F receptor; [14]): > 10000 nM; Emax (human 5-HT1B receptor [4]; read-out: 5-HT1B EMAX (%)): 45 ± 3%
4.79 nM	93 ± 4%	CN(C)[C@H]1CCc2c(cccc2-c2cccc3c2oc2ccccc23)C1 [DBZ, (S)-5-(Dibenzo[b,d]furan-4-yl)-N,N-dimethyl-1,2,3,4-tetrahydronaphthalen-2-amine]	–	–	–	–	–	–	–	–	–	–	–	Emax (human 5-HT1D receptor [1]; read-out: 5-HT1D EMAX (%)): 99 ± 2%; EC50 (human 5-HT1D receptor [1]; [15]): 4.37 nM; Ki (human 5-HT1B receptor [3]; [17]): 69.2 nM; Emax (human 5-HT1B receptor [4]; read-out: 5-HT1B EMAX (%)): 93 ± 2%; EC50 (human 5-HT1B receptor [4]; [18]): 64.6 nM; Ki (human 5-HT1A receptor [5]; [19]): 309 nM; EC50 (human 5-HT1A receptor [6]; [20]): 813 nM
–	–	CN(C)[C@H]1CCc2c(cccc2-c2c(F)cccc2F)C1 [Di-FPT, (S)-5-(2,6-Difluorophenyl)-N,N-dimethyl-1,2,3,4-tetrahydronaphthalen-2-amine]	1.66 nM	100 ± 1%	–	1.41 nM	1.62 nM	2.09 nM	100 ± 1%	–	1.74 nM	98 ± 2%	1.7 nM	–
87.1 nM	95 ± 2%	Fc1ccccc1-c1cccc2c1CC[C@H](N1CCNCC1)C2 [FPIP, (S)-1-(5-(2-Fluorophenyl)-1,2,3,4-tetrahydronaphthalen-2-yl)piperazine]	–	–	–	–	–	–	–	–	–	–	–	Emax (human 5-HT1D receptor [1]; read-out: 5-HT1D EMAX (%)): 98 ± 2%; EC50 (human 5-HT1D receptor [1]; [15]): 148 nM; Ki (human 5-HT1B receptor [3]; [17]): 107 nM; Emax (human 5-HT1B receptor [4]; read-out: 5-HT1B EMAX (%)): 99 ± 3%; EC50 (human 5-HT1B receptor [4]; [18]): 126 nM; Ki (human 5-HT1A receptor [5]; [19]): 0.977 nM; EC50 (human 5-HT1A receptor [6]; [20]): 1.2 nM; selectivity over 5-HT1B and 5-HT1D receptors (human 5-HT1A receptor [6]; full efficacy 5-HT1A agonist): 100 fold
2040 nM	–	CN1CCC(c2c[nH]c3ccc(NC(=O)c4ccc(F)cc4)cc23)CC1 [LY334370, reference compound]	–	–	–	–	–	–	–	–	–	–	–	Ki (human 5-HT1F receptor; [14]): 8.32 nM; Ki (human 5-HT1A receptor [5]; [19]): 501 nM

Compound	Ki (human 5-HT1D receptor [2]; [16])	Emax (human 5-HT1A receptor [6]; read-out: 5-HT1A EMAX (%))	EC50 (human 5-HT1D receptor [1]; 5-HT1D pEC50, WT receptor)	Emax (human 5-HT1D receptor [1]; [7])	Ki (human 5-HT1F receptor)	Ki (human 5-HT1D receptor [2]; [9])	Ki (human 5-HT1B receptor [3]; [10])	EC50 (human 5-HT1B receptor [4]; 5-HT1B pEC50, WT receptor)	Emax (human 5-HT1B receptor [4]; [11])	5-HT1B EMAX (%) (human 5-HT1B receptor [4]; [8])	EC50 (human 5-HT1A receptor [6]; 5-HT1A pEC50, WT receptor)	Emax (human 5-HT1A receptor [6]; [12])	Ki (human 5-HT1A receptor [5]; [13])	other results
Cc1ccc(CNCC2(F)CCN(C(=O)c3ccc(F)c(Cl)c3)CC2)nc1 [NLX-112, reference compound]	–	100 ± 3%	–	–	> 10000 nM	> 10000 nM	> 10000 nM	–	–	–	–	–	–	EC50 (human 5-HT1D receptor [1]; read-out: 5-HT1D pEC50 (converted), WT receptor): > 10000 nM; EC50 (human 5-HT1B receptor [4]; read-out: 5-HT1B pEC50 (converted), WT receptor): > 10000 nM

From publication PMC10797628
